Data reported in patent US20250099488A1, “ANTI-PARASITE COMPOUNDS” (AUSTRALIAN NATIONAL UNIVERSITY, priority 2022, published 2025).
Read-outs that look alike come from different tables or passages of the source.

Experiments:
[1] = tested on: P. falciparum infected red blood cells (iRBC) vs uninfected red blood cells (uRBC); experiment: Uptake of fluorescent cholesterol analogues into infected vs uninfected RBCs (flow cytometry, microscopy); type: cell-based, Plasmodium falciparum; conditions: 24 hrs incubation, ring-stage culture, cholesterol-depleted media
Experimental: (§1) For quantification, events were measured on a LSR II or LSRFortessa Flow Cytometer. NBD/BODIPY fluorescence was detected at 488 nm ex/530 nm em. Hoechst 33342 (Thermo Fisher) fluorescence was detected at 410 nm ex/450 nm em. Resorufin fluorescence was detected at 561 nm ex/610 nm em. Mitotracker Deep Red was detected at 633 nm ex/670 nm em. Dehydroergosterol was detected at 355 nm ex/450 nm em.
(§2) Data were initially processed using FlowJo. RBCs were gated on FSC and SCC. iRBCs (positive) and uRBCs (negative) were differentiated by Hoechst or Mitotracker fluorescence. The geometric mean of fluorescence intensity (mean fluorescence intensity, MFI) and/or the percentage of each population (e.g. Hoechst positive) was calculated with FlowJo. Background fluorescence was subtracted based on unstained controls (buffer or solvent only). Except where otherwise specified, MFI data was normalised between experiments by setting the fluorescence of untreated uRBCs to 1.
Ring-stage parasites at 4% parasitaemia and 2% haematocrit were incubated with 2.02 uM cholesterol analogues or solvent controls in cholesterol-depleted media for 24 hours at 37° C. under microaerophilic conditions. […] Samples were read on a flow cytometer or imaged with fluorescence microscopy as described above. […]

[2] = tested on: Leishmania tarentolae; experiment: Leishmania tarentolae growth inhibition; type: cell-based; conditions: 72 hours, FIG. 22
[3] = tested on: human foreskin fibroblasts (HFF); experiment: HFF growth inhibition assay (SYBR Safe); type: cell-based; conditions: 72 hrs
Experimental: Cells were incubated with a serial dilution of each compound, or media/DMSO alone. The protein synthesis inhibitor cycloheximide (10 μg/mL) was used as a positive control to determine background fluorescence. Approximately 5000 cells were seeded in each well. […] Plates were transferred to a −18° C. freezer. […] Fluorescence was read at 490 nm excitation/520 nm emission on a FLUOstar Optima fluorescence plate reader.
HFF cell growth inhibition assays began with 5000 cells per well. 10 μg/mL cycloheximide was used as a no-growth control.

[4] = tested on: P. falciparum gametocytes (stage III-IV); experiment: Gametocyte viability assay (MitoTracker, flow cytometry); type: cell-based, Plasmodium falciparum; conditions: FIG. 9C
Description: Gametocyte assays begun eight days post-invasion (Stage III-IV).
(§3) Growth inhibition data were normalised by subtracting background fluorescence, luminescence, absorbance, or percentage of cells from a no-growth or no-viability control (high drug concentration, no-parasite control, or time=0 measurement as specified), and expressed as a percentage of the growth or cell percentage in the negative control (culture media alone or solvent control) at the indicated timepoint (or to the highest measurement reached during the assay for FIG. 15B).

[5] = tested on: asexual P. falciparum; experiment: Plasmodium growth inhibition assay (SYBR Safe), asexual stages; type: cell-based, Plasmodium falciparum; conditions: 72 hrs, FIG. 10B
Experimental: Compounds or solvent controls (DMSO, ethanol, or ethyl acetate) were serially diluted 2-fold across flat-bottom 96-well plates. Complete culture media without compound was used as a negative control. Chloroquine (100-200 nM) {Sigma C6628} was used as a positive control to determine background fluorescence. The parasitaemia of a culture containing predominantly ring stage parasites was counted by Giemsa smear. The parasitaemia was adjusted to 1% by addition of fresh uRBCs, and added to the plate at a final haematocrit of 1%, with 200 μL per well. The plates were incubated at 37° C. under humid microaerophilic conditions. […] Fluorescence was read at 490 nm excitation/520 nm emission on a FLUOstar Optima fluorescence plate reader {BMG Labtech}.
Growth inhibition data were normalised by subtracting background fluorescence from a no-growth control (high drug concentration or time=0 measurement as specified), and expressed as a percentage of the growth in the negative control (media alone or solvent control) either at the indicated timepoint, or to the highest measurement reached during the assay.
P. falciparum asexual parasite assays begun with ring-stage parasites at 1% parasitaemia and 1% haematocrit. 200 nM chloroquine (Sigma C6628) was used as a no-growth control. […] 17]; 8 (2):e54974).
as §3

[6] = tested on: P. falciparum infected red blood cells (iRBC) vs uninfected red blood cells (uRBC); experiment: Uptake and cleavage of steroid-resorufin conjugate in iRBCs vs uRBCs; type: cell-based, Plasmodium falciparum; conditions: steroid-resorufin conjugate (PAYb193), FIG. 10A
Experimental: Images were collected and deconvoluted on a Deltavision Deconvolution microscope at 1000× magnification, with a resolution of 0.067 μm per pixel. NBD and BODIPY fluorescence were detected at 475/28 nm excitation and 525/48 nm emission. Hoechst fluorescence (nucleic acid) was detected at 390/18 nm and ex/435/48 nm em. Resorufin fluorescence was detected at 575/25 nm ex and 626/45 nm em.
as §1, §2

[7] = tested on: chloroquine sensitive P. falciparum strains 3D7 and C2_GC03; experiment: Growth inhibition of chloroquine sensitive P. falciparum strains; type: cell-based, Plasmodium falciparum; conditions: FIG. 21B/21C
Experimental: (§4) Growth inhibition was investigated according to methods described by Smilkstein et al. (2004) with modifications by Spry et al. (2013). Compounds or solvent controls (DMSO, ethanol, or ethyl acetate) were serially diluted 2-fold across flat-bottom 96-well plates. Complete culture media without compound was used as a negative control. Chloroquine (100-200 nM) {Sigma C6628} was used as a positive control to determine background fluorescence. The parasitaemia of a culture containing predominantly ring stage parasites was counted by Giemsa smear. The parasitaemia was adjusted to 1% by addition of fresh uRBCs, and added to the plate at a final haematocrit of 1%, with 200 μL per well. The plates were incubated at 37° C. under humid microaerophilic conditions. After 72 hours (or the indicated timepoint), the plates were transferred to a −18° C. freezer to stop the assay and lyse cells. Plates were thawed and lysate was mixed 1:1 with SYBR Safe DNA Gel Stain {Invitrogen 33102}(final concentration 1/10000) diluted in lysis buffer (20 mM TRIS, 5 mM EDTA, 0.008% w/v Saponin, 0.08% w/v Triton-X 100, pH 7.5). Fluorescence was read at 490 nm excitation/520 nm emission on a FLUOstar Optima fluorescence plate reader {BMG Labtech}. […]

[8] = HEK293 cell viability assay (MTT); type: cell-based, human; conditions: human, 72 hours, FIG. 21E, conjugate = BC75D, read-out: IC50, HEK293 cytotoxicity
Experimental: HEK293 cell viability assays began with 5000 cells per well. 10 μg/mL cycloheximide was used as a no-growth control. Metabolic capacity (indicating viability) was measured by incubation with 0.45 mg/mL methylthiazolyldiphenyl-tetrazolium bromide (MTT; Sigma M2128) for two hours followed by crystal solubilisation in SDS.

[9] = tested on: chloroquine resistant P. falciparum strain C4_Dd2; experiment: Growth inhibition of chloroquine resistant P. falciparum strain; type: cell-based, Plasmodium falciparum; conditions: 72 hours, FIG. 21D; conjugate = BC75D
Experimental: as §4

CC(C)CCC[C@@H](C)[C@H]1CC[C@H]2[C@@H]3CC=C4C[C@@H](OC(=O)CCCCCNc5ccc([N+](=O)[O-])c6nonc56)CC[C@]4(C)[C@H]3CC[C@]12C [3-hexanoyl-NBD-cholesterol]
Uptake in iRBC compared to uRBC (fold change of fluorescence) [1]: not significantly different

CC1=CC(C)=[N+]2C1=C(CC[C@@H](C)[C@H]1CC[C@H]3[C@@H]4CC=C5C[C@@H](O)CC[C@]5(C)[C@H]4CC[C@]13C)c1c(C)cc(C)n1[B-]2(F)F [24-BODIPY-cholesterol]
Uptake in iRBC compared to uRBC (fold change of fluorescence) [1]: seems to get stuck at the RBC membrane

COc1cc(NC(C)CCCNC(=O)CCC(=O)O[C@H]2CC[C@H]3[C@@H]4CC=C5C[C@@H](O)CC[C@]5(C)[C@H]4CC[C@]23C)c2ncccc2c1 (stereo partly shown) [BC5B]
IC50 [2]: higher efficacy than primaquine | Maximal inhibition of HFF growth at the range of concentrations tested [3]: ≤ 50% | Susceptibility of early (I-III) and late stage (III-IV) gametocytes [4]: both early (A) and late-stage (B) gametocytes are equally susceptible

CC(C)(C)OOCCO[C@H]1CC[C@H]2[C@@H]3CC=C4C[C@@H](O)CC[C@]4(C)[C@H]3CC[C@]12C [BC86D]
IC50 ([2]; Leishmania tarentolae, read-out: IC50): < 1 µM

CC12CCC(O)CC1=CCC1C2CCC2(C)C(OC(=O)CCC(=O)OCOc3ccc4nc5ccc(=O)cc-5oc4c3)CCC12 (stereo not drawn) [Payb193, 3β-hydroxyandrost-5-en-17β-yl succinate-(hydroxymethoxy)-resorufin ester]
Killing of the parasite compared with uncoupled resorufin (dose-response curve) [5]: can kill the parasite at lower concentrations than the uncoupled resorufin base molecule | Uptake of the probe, iRBCs vs uRBCs [6]: approximately 2 fold

CCN(CCO)CCCC(C)Nc1ccnc2cc(Cl)ccc12 (stereo not shown) [hydroxychloroquine, reference compound]
Fold better efficacy than hydroxychloroquine-steroid conjugates [7]: 1.4-1.6 fold | IC50 at 72 h ([8]; HEK293 cells): 38.4 µM

CCN(CCCC(C)Nc1ccnc2cc(Cl)ccc12)CCOC(=O)CCC(=O)O[C@H]1CC[C@H]2[C@@H]3CC=C4C[C@@H](O)CC[C@]4(C)[C@H]3CC[C@]12C (stereo partly shown) [hydroxychloroquine-steroid conjugate]
Times more effective at killing resistant parasites than hydroxychloroquine [9]: 2.6 fold | IC50 at 72 h [8]: 13 µM

C[C@]12CC[C@H]3[C@@H](CC=C4C[C@@H](O)CC[C@@]43C)[C@@H]1CC[C@@H]2OC(=O)CCC(=O)OCOc1ccc2nc3ccc(=O)cc-3oc2c1 [steroid-resorufin conjugate, 3β-Hydroxyandrost-5-en-17β-yl succinate-(hydroxymethoxy)-resorufin ester]
Uptake of the probe, iRBCs vs uRBCs [6]: approximately 2 fold
